Measurements taken from patent US11040963B2 (priority 2017, dated 2021).

Experiments:
[1] = target: HA H1 A/California/07/09 (Influenza A virus (A/California/07/2009(H1N1)), UniProt C3W5X2); assay: biochemical; settings: Competition binding (AlphaLISA), pIC50 H1 A/California/07/09
H5N1 A/Vietnam/1203/04 = assay: microbe, parasite or virus in culture; type: cell-based, influenza A virus; settings: 96 h, average of repeats; for EC50: Influenza A virus, H5N1, MDCK, read-out: Virus neutralization assay (VNA), pEC50 H5N1 A/Vietnam/1203/04, MDCK cells, 96 h, CPE by ATPlite (converted)
H1N1 A/California/07/09 = assay: microbe, parasite or virus in culture; type: cell-based, influenza A virus; settings: for EC50: Influenza A virus, H1N1, MDCK, 96 h, read-out: Virus neutralization assay (VNA), pEC50 H1N1 A/California/07/09 (converted)
[2] = target: HA H5 A/Vietnam/1203/04 (Influenza A virus (A/Vietnam/1203/2004(H5N1)), UniProt Q5EP31); assay: biochemical; settings: Competition binding (AlphaLISA), pIC50 H5 A/Vietnam/1203/04
[3] = target: HA H1 A/New Caledonia/20/99 (Influenza A virus (A/New Caledonia/20/1999(H1N1)), UniProt Q6WG00); assay: biochemical; settings: Competition binding (AlphaLISA), pIC50 H1 A/New Caledonia/20/99
in vitro = settings: dog, Cytotoxicity (pCC50) MDCK
H1N1 A/PR/8/34-MA = assay: microbe, parasite or virus in culture; type: cell-based, influenza A virus; settings: Influenza A virus, MDCK, 96 h, read-out: Virus neutralization assay (VNA), pEC50 H1N1 A/PR/8/34-MA (converted)
[4] = tested on: H1N1 A/New Caledonia/20/99; assay: microbe, parasite or virus in culture; type: cell-based, influenza A virus; settings: for EC50: Influenza A virus, H1N1, MDCK, 96 h, read-out: Virus neutralization assay (VNA), pEC50 H1N1 A/New Caledonia/20/99 (converted)

COC(=O)[C@@H](c1ccccc1)N1CCN(C(=O)c2cccc(-c3nc4ccc(OC)cc4s3)c2)CC1 [Example 19]
IC50 [1]: 20 nM | EC50 (H5N1 A/Vietnam/1203/04): 1580 nM | EC50 (H1N1 A/California/07/09): 251 nM | IC50 [2]: 200 nM | IC50 [3]: 15.8 nM | CC50 (in vitro): > 50100 nM | EC50 (H1N1 A/PR/8/34-MA): 126 nM | EC50 [4]: 100 nM

COC(=O)C(c1ccccc1)N1CCN(C(=O)c2cccc(-c3nc4ccc(OC)cc4s3)c2)CC1 (stereo not drawn) [Example 29]
IC50 [1]: 25.1 nM | EC50 (H5N1 A/Vietnam/1203/04): 3980 nM | EC50 (H1N1 A/California/07/09): 251 nM | IC50 [2]: 251 nM | IC50 [3]: 15.8 nM | CC50 (in vitro): 39800 nM | EC50 (H1N1 A/PR/8/34-MA): 126 nM | EC50 [4]: 158 nM

COC(=O)[C@@H](c1ccccc1)C1CCN(C(=O)c2cccc(-c3nc4ccc(OC)cc4s3)c2)CC1 [Example 65]
IC50 [1]: 100 nM | EC50 (H5N1 A/Vietnam/1203/04): 25100 nM | EC50 (H1N1 A/California/07/09): 1000 nM | IC50 [2]: 631 nM | IC50 [3]: 50.1 nM | CC50 (in vitro): 39800 nM | EC50 (H1N1 A/PR/8/34-MA): 631 nM | EC50 [4]: 501 nM

COC(=O)C(c1ccccc1)N1CCN(C(=O)c2cccc(-c3ccc(OC)cc3)c2)CC1 (stereo not drawn) [Example 83]
IC50 [1]: 398 nM | Virus neutralization assay (VNA), pEC50 H5N1 A/Vietnam/1203/04 (H5N1 A/Vietnam/1203/04; MDCK cells, CPE by ATPlite): 4.8 | Virus neutralization assay (VNA), pEC50 H1N1 A/California/07/09 (H1N1 A/California/07/09): 5.7 | IC50 [2]: 2510 nM | IC50 [3]: 200 nM | CC50 (in vitro): 39800 nM | EC50 (H1N1 A/PR/8/34-MA): 1000 nM | Virus neutralization assay (VNA), pEC50 H1N1 A/New Caledonia/20/99 [4]: 6.2

O=C(c1cccc(-c2cc3ccccc3o2)c1)N1CCN(Cc2ccccc2)CC1 [Example 85]
IC50 [1]: 631 nM | EC50 (H5N1 A/Vietnam/1203/04): 12600 nM | EC50 (H1N1 A/California/07/09): 2510 nM | IC50 [2]: 3160 nM | IC50 [3]: 316 nM | CC50 (in vitro): 10000 nM | EC50 (H1N1 A/PR/8/34-MA): 501 nM | EC50 [4]: 631 nM

Cc1nnc([C@@H](c2ccccc2)N2CCN(C(=O)c3cccc(-c4ccc5ccccc5n4)c3)CC2)o1 [Example 112]
IC50 [1]: 501 nM | EC50 (H5N1 A/Vietnam/1203/04): > 5010 nM | EC50 (H1N1 A/California/07/09): 1580 nM | IC50 [2]: 6310 nM | IC50 [3]: 398 nM | CC50 (in vitro): 7940 nM | EC50 [4]: 1260 nM

COC(=O)[C@@H](c1ccccc1)N1CCN(C(=O)c2cccc(-c3nc4cc(C(F)(F)F)ccc4o3)c2)[C@H](C(N)=O)C1 [Example 113]
IC50 [1]: 501 nM | EC50 (H5N1 A/Vietnam/1203/04): > 50100 nM | EC50 (H1N1 A/California/07/09): 1260 nM | IC50 [2]: 25100 nM | IC50 [3]: 631 nM | CC50 (in vitro): > 50100 nM | EC50 [4]: 1580 nM

COC(=O)C(c1ccccc1)N1CCN(C(=O)C2CCCN(c3nc4ccc(OC)cc4s3)C2)CC1 (stereo not drawn) [Example 115]
IC50 [1]: 251 nM | EC50 (H5N1 A/Vietnam/1203/04): > 50100 nM | EC50 (H1N1 A/California/07/09): 2000 nM | IC50 [2]: 7940 nM | IC50 [3]: 316 nM | CC50 (in vitro): 3980 nM | EC50 [4]: 1260 nM

Cc1nc(C(c2ccccc2)N2CCN(C(=O)c3cccc(-c4nc5cc(C(F)(F)F)ccc5o4)c3)CC2)n[nH]1 (stereo not drawn) [Example 116]
IC50 [1]: 501 nM | EC50 (H5N1 A/Vietnam/1203/04): > 50100 nM | EC50 (H1N1 A/California/07/09): 1580 nM | IC50 [2]: 5010 nM | IC50 [3]: 398 nM | CC50 (in vitro): 50100 nM | EC50 [4]: 1580 nM

COC(=O)[C@H](c1ccccc1)N1CCN(C(=O)c2cccc(-c3nc4cc(C(F)(F)F)ccc4o3)c2)[C@@H](C)C1 [Example 117]
IC50 [1]: 126 nM | EC50 (H5N1 A/Vietnam/1203/04): 31600 nM | EC50 (H1N1 A/California/07/09): 2510 nM | IC50 [2]: 6310 nM | IC50 [3]: 100 nM | CC50 (in vitro): > 50100 nM | EC50 [4]: 1260 nM

CNC(=O)N(Cc1ccccc1)C1CCN(C(=O)c2cccc(-c3nc4ccc(OC)cc4s3)c2)CC1 [Example 118]
IC50 [1]: 251 nM | EC50 (H5N1 A/Vietnam/1203/04): 31600 nM | EC50 (H1N1 A/California/07/09): 7940 nM | IC50 [2]: 25100 nM | IC50 [3]: 316 nM | CC50 (in vitro): 2000 nM | EC50 [4]: 1260 nM

COC(=O)C(c1ccccc1)N1CCN(C(=O)c2ccnc(-c3nc4cc(C(F)(F)F)ccc4o3)c2)CC1 (stereo not drawn) [Example 119]
IC50 [1]: 158 nM | EC50 (H5N1 A/Vietnam/1203/04): 25100 nM | EC50 (H1N1 A/California/07/09): 1000 nM | IC50 [2]: 2000 nM | IC50 [3]: 158 nM | CC50 (in vitro): 10000 nM | EC50 [4]: 1580 nM

COC(=O)C(c1ccccc1)N1CCN(C(=O)c2cccc(-c3nc4ccc(OC)cc4[nH]3)c2)CC1 (stereo not drawn) [Example 121]
IC50 [1]: 200 nM | EC50 (H5N1 A/Vietnam/1203/04): 39800 nM | EC50 (H1N1 A/California/07/09): 3160 nM | IC50 [2]: 1580 nM | IC50 [3]: 126 nM | CC50 (in vitro): 7940 nM | EC50 [4]: 1580 nM

COC(=O)C(c1ccncc1)N1CCN(C(=O)c2cccc(-c3nc4ccc(OC)cc4s3)c2)CC1 (stereo not drawn) [Example 122]
IC50 [1]: 398 nM | EC50 (H5N1 A/Vietnam/1203/04): 12600 nM | EC50 (H1N1 A/California/07/09): 3980 nM | IC50 [2]: 2510 nM | IC50 [3]: 200 nM | CC50 (in vitro): 10000 nM | EC50 [4]: 1580 nM

COc1ccc2nc(-c3cccc(C(=O)N4CCN([C@@H](c5ccccc5)c5nnc(C)o5)CC4)c3)sc2c1 [Example 124]
IC50 [1]: 63.1 nM | EC50 (H5N1 A/Vietnam/1203/04): 3980 nM | EC50 (H1N1 A/California/07/09): 501 nM | IC50 [2]: 631 nM | IC50 [3]: 79.4 nM | CC50 (in vitro): 15800 nM | EC50 [4]: 2000 nM

Cc1nnc(C(c2ccccc2)N2CCN(C(=O)c3cccc(-c4nc5cc(Cl)ccc5o4)c3)CC2)o1 (stereo not drawn) [Example 125]
IC50 [1]: 158 nM | EC50 (H5N1 A/Vietnam/1203/04): 50100 nM | EC50 (H1N1 A/California/07/09): 1580 nM | IC50 [2]: 12600 nM | IC50 [3]: 158 nM | CC50 (in vitro): 25100 nM | EC50 [4]: 2000 nM

O=C(c1cccc(-c2nc3cc(C(F)(F)F)ccc3o2)c1)N1CCN(C(c2ccccc2)c2nnc(C3CC3)o2)CC1 (stereo not drawn) [Example 127]
IC50 [1]: 79.4 nM | EC50 (H5N1 A/Vietnam/1203/04): 20000 nM | EC50 (H1N1 A/California/07/09): 2510 nM | IC50 [2]: 7940 nM | IC50 [3]: 251 nM | CC50 (in vitro): > 50100 nM | EC50 [4]: 2000 nM

Cc1nnc(C(c2ccccc2)N2CCN(C(=O)c3cccc(-c4nc5cccnc5o4)c3)CC2)o1 (stereo not drawn) [Example 129]
IC50 [1]: 631 nM | EC50 (H5N1 A/Vietnam/1203/04): > 50100 nM | EC50 (H1N1 A/California/07/09): 3980 nM | IC50 [2]: 31600 nM | IC50 [3]: 501 nM | CC50 (in vitro): > 50100 nM | EC50 [4]: 2000 nM

COc1ccc2nc(-c3cccc(C(=O)N4CCN(C5(c6ccccc6)CCN(C)C5=O)CC4)c3)sc2c1 (stereo not drawn) [Example 131]
IC50 [1]: 3160 nM | EC50 (H5N1 A/Vietnam/1203/04): > 50100 nM | EC50 (H1N1 A/California/07/09): 1580 nM | IC50 [2]: 39800 nM | IC50 [3]: 3980 nM | CC50 (in vitro): 20000 nM | EC50 [4]: 2510 nM

COC(=O)C(c1ccccc1)N1CCCN(C(=O)c2cccc(-c3nc4ccc(OC)cc4s3)c2)CC1 (stereo not drawn) [Example 132]
IC50 [1]: 794 nM | EC50 (H5N1 A/Vietnam/1203/04): > 50100 nM | EC50 (H1N1 A/California/07/09): 39800 nM | IC50 [2]: 15800 nM | IC50 [3]: 631 nM | CC50 (in vitro): > 50100 nM | EC50 [4]: 2510 nM

Cn1nnc([C@@H](c2ccccc2)N2CCN(C(=O)c3cc(-c4nc5cc(OC(F)(F)F)ccc5o4)ccn3)CC2)n1 [Example 133]
IC50 [1]: 15.8 nM | EC50 (H5N1 A/Vietnam/1203/04): 631 nM | EC50 (H1N1 A/California/07/09): 63.1 nM | IC50 [2]: 251 nM | IC50 [3]: 10 nM | CC50 (in vitro): > 50100 nM | EC50 [4]: 25.1 nM

Cc1nc([C@@H](c2ccccc2)N2CCN(C(=O)c3cc(-c4nc5cc(OC(F)(F)F)ccc5o4)ccn3)CC2)n[nH]1 [Example 134]
IC50 [1]: 39.8 nM | EC50 (H5N1 A/Vietnam/1203/04): 3980 nM | EC50 (H1N1 A/California/07/09): 631 nM | IC50 [2]: 158 nM | IC50 [3]: 15.8 nM | CC50 (in vitro): > 50100 nM | EC50 [4]: 251 nM
